Format: physicochemical
Conditions: 2 h
Method: 30.13 mg of 106 was added to 1 mL USP-purified water. The sample was rotated for 2 h and then centrifuged for 5 min. […] A 125 μL aliquot of the solution was then diluted to 25 mL. The sample was analyzed by UV/Vis spectroscopy at 436 nm, and the absorbance was compared to a standard curve compiled from four standards of known concentration. […] Slight error may have been introduced by the small size of the original aliquot. […] The sample was rotated for 2 h and then centrifuged for 5 min. […] A 125 μL aliquot of the solution was then diluted to 25 mL. The sample was analyzed by UV/Vis spectroscopy at 411 nm, and the absorbance was compared to a standard curve compiled from four standards of known concentration. […] Slight error may have been introduced by the small size of the original aliquot.

With “β,ε-Carotenyl 3,3′-disuccinate sodium salt [compound 106]” the “Aqueous dispersibility (concentration of the original supernatant)” value was 2.85 mg/mL.

— patent US20070015735A1, “Water-dispersible carotenoids, including analogs and derivatives” (priority 2005, published 2007)
